Experiment [1] deals with T1, Progesterone Receptor (Homo sapiens, UniProt P06401).
T1 construct: expressed in transfected cells; host or cells: CV-1 cells transduced with PRb-BacMam and MMTV-BacMam (luciferase reporter)
T1 sequence (P06401 1-933): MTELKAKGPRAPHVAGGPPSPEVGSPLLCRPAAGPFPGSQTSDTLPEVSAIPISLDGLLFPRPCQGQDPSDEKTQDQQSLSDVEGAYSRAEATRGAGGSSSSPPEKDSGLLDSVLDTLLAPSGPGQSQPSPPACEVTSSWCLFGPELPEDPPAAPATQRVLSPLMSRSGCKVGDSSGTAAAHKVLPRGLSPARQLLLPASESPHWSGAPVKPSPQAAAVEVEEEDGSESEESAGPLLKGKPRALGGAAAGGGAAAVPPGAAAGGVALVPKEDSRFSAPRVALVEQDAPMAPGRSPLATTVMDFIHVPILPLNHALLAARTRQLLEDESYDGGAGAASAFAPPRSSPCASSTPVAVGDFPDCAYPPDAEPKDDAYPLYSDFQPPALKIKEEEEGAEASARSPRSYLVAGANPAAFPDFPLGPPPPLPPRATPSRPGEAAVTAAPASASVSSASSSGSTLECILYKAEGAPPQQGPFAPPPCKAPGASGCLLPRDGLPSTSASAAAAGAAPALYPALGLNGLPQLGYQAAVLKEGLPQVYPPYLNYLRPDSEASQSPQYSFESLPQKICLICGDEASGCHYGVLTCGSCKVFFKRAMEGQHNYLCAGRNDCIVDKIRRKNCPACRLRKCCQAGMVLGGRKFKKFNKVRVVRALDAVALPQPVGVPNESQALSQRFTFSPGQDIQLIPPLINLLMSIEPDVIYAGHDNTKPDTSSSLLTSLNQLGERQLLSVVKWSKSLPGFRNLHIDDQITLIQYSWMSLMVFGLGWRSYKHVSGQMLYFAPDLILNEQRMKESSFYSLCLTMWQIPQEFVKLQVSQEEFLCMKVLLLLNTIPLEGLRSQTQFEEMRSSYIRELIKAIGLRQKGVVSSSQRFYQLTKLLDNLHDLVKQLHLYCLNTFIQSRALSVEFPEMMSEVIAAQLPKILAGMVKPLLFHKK
Nature of the experiment: Assay for progesterone receptor activity (CV-1 cells transduced with PRb-BacMam and MMTV-BacMam). Format: cell-based. The note with it: 24 h, read-out: pEC50, progesterone receptor activity (converted). As to the method: A T225 flask of CV-1 cells at a density of 80% confluency was washed with PBS, detached from the flask using 0.25% trypsin and counted using a Sysmex KX-21N. Cells were diluted in DMEM containing 10% Hyclone, 2 mM […] and 1% Pen/Strep at 140 cells/μl and transduced with 10% PRb-BacMam and 10% MMTV-BacMam. […] of suspension cells were dispensed to each well of white Nunc 384-well plates, containing compounds at the required concentration. After 24 h 10 μl of Steady Glo were added to each well of the plates. Plates were incubated in the dark for 10 min before reading them on a Viewlux reader. Dose response curves were constructed from which pEC50 values were estimated.

In experiment [2] the test system is NFkB activity. Nature of the experiment: Glucocorticoid mediated transrepression of NFkB activity (A549 cells, ELAM promoter alkaline phosphatase reporter, TNFα stimulated). Format: cell-based. The note with it: Homo sapiens, A549, 16 h, Human A549 lung epithelial cells, 3 ng/ml human recombinant TNFα, read-out: pEC50, transrepression of NFkB activity (converted). The text has this:
Human A549 lung epithelial cells were engineered to contain a secreted placental alkaline phosphatase gene under the control of the distal region of the NFkB dependent ELAM promoter as previously described in Ray, K. P., Farrow, S., Daly, M., Talabot, F. and Searle, N. “Induction of the E-selectin promoter by interleukin 1 and tumour necrosis factor alpha, and inhibition by glucocorticoids” Biochemical Journal (1997) 328: 707-15.
Compounds were solvated and diluted in DMSO, and transferred directly into assay plates such that the final concentration of DMSO was 0.7%. Following the addition of cells (40K per well), plates were incubated for 1 hr prior to the addition of 3 ng/ml human recombinant TNFα. Following continued incubation for 16 hr, alkaline phosphatase activity was determined by measuring the change in optical density at 405 nm with time following the addition of 0.7 volumes of assay buffer (1 mg/ml p-nitrophenylphosphate dissolved in 1M diethanolamine, 0.28M NaCl, 0.5 mM MgCl2). Dose response curves were constructed from which EC50 values were estimated.

In the case of `COc1ccc(F)cc1C(C)(C)CC(O)(CNc1cc(C)cc2c1cnn2-c1ccccc1)C(F)(F)F` (single isomer, unassigned) [Example 15-A, 1,1,1-Trifluoro-4-[5-fluoro-2-(methyloxy)phenyl]-4-methyl-2-{[(6-methyl-1-phenyl-1H-indazol-4-yl)amino]methyl}-2-pentanol], the EC50 in experiment [1] was > 10 µM.

For the compound `COc1ccc(F)cc1C(C)(C)CC(O)(CNc1cc(C)cc2c1cnn2-c1ccc(F)cc1F)C(F)(F)F` (single isomer, unassigned) [Example 16-B, 2-({[1-(2,4-Difluorophenyl)-6-methyl-1H-indazol-4-yl]amino}methyl)-1,1,1-trifluoro-4-[5-fluoro-2-(methyloxy)phenyl]-4-methyl-2-pentanol], the EC50 in experiment [1] is > 10 µM.

Turning to `Cc1cc(NCC(O)(CC(C)(C)c2cc(F)ccc2O)C(F)(F)F)c2cnn(-c3cccc(O)c3)c2c1` (single isomer, unassigned) [Example 24-A, 4-Fluoro-2-[4,4,4-trifluoro-3-hydroxy-3-({[1-(3-hydroxyphenyl)-6-methyl-1H-indazol-4-yl]amino}methyl)-1,1-dimethylbutyl]phenol], the EC50 in experiment [1] was > 10 µM.

Regarding `CCOC(=O)c1cccc(-n2ncc3c(NCC(O)(CC(C)(C)c4cc(F)ccc4OC)C(F)(F)F)cccc32)c1` (single isomer, unassigned) [Example 6-A, Ethyl 3-(4-{[4-[5-fluoro-2-(methyloxy)phenyl]-2-hydroxy-4-methyl-2-(trifluoromethyl)pentyl]amino}-1H-indazol-1-yl)benzoate], the EC50 in experiment [1] was > 10 µM.

With `COc1ccc(-n2ncc3c(NCC(O)(CC(C)(C)c4cc(F)ccc4OC)C(F)(F)F)cccc32)cc1` (racemic) [Example 3, 1,1,1-Trifluoro-4-[5-fluoro-2-(methyloxy)phenyl-4-methyl-2-({1-[4-(methyloxy)phenyl]-1H-indazol-4-yl}amino)methyl]-2-pentanol], the EC50 in experiment [1] is > 10 µM; in experiment [2] it was < 3.16 nM.

For the compound `COc1ccc(F)cc1C(C)(C)CC(O)(CNc1cc(C)cc2c1cnn2-c1ccccc1F)C(F)(F)F` (single isomer, unassigned) [Example 25-B, 1,1,1-Trifluoro-4-[5-fluoro-2-(methyloxy)phenyl]-2-({[1-(2-fluorophenyl)-6-methyl-1H-indazol-4-yl]amino}methyl)-4-methyl-2-pentanol], the EC50 in experiment [1] was > 10 µM.

Regarding `COc1ccc(F)cc1C(C)(C)CC(O)(CNc1cccc2c1cnn2-c1ccc(F)cc1)C(F)(F)F` (single isomer, unassigned) [Example 2-A, 1,1,1-Trifluoro-4-[5-fluoro-2-(methyloxy)phenyl]-2-({[1-(4-fluorophenyl)-1H-indazol-4-yl]amino}methyl)-4-methyl-2-pentanol], the EC50 in experiment [1] was > 10 µM.

On to `COc1ccc(F)cc1C(C)(C)CC(O)(CNc1cc(C)cc2c1cnn2-c1ccc(F)cc1)C(F)(F)F` (single isomer, unassigned) [Example 26-A, 1,1,1-Trifluoro-4-[5-fluoro-2-(methyloxy)phenyl]-2-({[1-(4-fluorophenyl)-6-methyl-1H-indazol-4-yl]amino}methyl)-4-methyl-2-pentanol], for which, in experiment [1], the EC50 was > 10 µM.

Regarding `COc1ccc(F)cc1C(C)(C)CC(O)(CNc1cccc2c1cnn2-c1ccncc1)C(F)(F)F` (racemic) [Example 5, 1,1,1-Trifluoro-4-[5-fluoro-2-(methyloxy)phenyl]-4-methyl-2-({[1-(4-pyridinyl)-1H-indazol-4-yl]amino}methyl)-2-pentanol], the EC50 in experiment [1] is > 10 µM; in experiment [2], < 3.16 nM.

For `COc1ccc(F)cc1C(C)(C)CC(O)(CNc1cccc2c1cnn2-c1ccccc1)C(F)(F)F` (racemic) [Example 7, 1,1,1-Trifluoro-4-[5-fluoro-2-(methyloxy)phenyl]-4-methyl-2-{[(1-phenyl-1H-indazol-4-yl)amino]methyl}-2-pentanol], the figures for the EC50 in experiment [1] and in experiment [2] were > 10 µM and < 3.16 nM, respectively.

Turning to `COc1ccc(F)cc1C(C)(C)CC(O)(CNc1cccc2c1cnn2-c1ccc(F)cc1F)C(F)(F)F` (single isomer, unassigned) [Example 4-A, 2-({[1-(2,4-Difluorophenyl)-1H-indazol-4-yl]amino}methyl)-1,1′-trifluoro-4-[5-fluoro-2-(methyloxy)phenyl]-4-methyl-2-pentanol], in experiment [1], the EC50 is > 10 µM.

Values taken from patent US8093281B2, “Indazoles as glucocorticoid receptor ligands” (Glaxo Group Limited, priority 2005, dated 2012).
